Data as given in ChEMBL document CHEMBL1153288, “1,3,4-Oxadiazole substituted naphthyridines as HIV-1 integrase inhibitors. Part 2: SAR of the C5 position” (Bioorg Med Chem Lett, 2009).

Key:
[1] = Inhibition of recombinant HIV integrase strand transfer activity; set-up: species or system Human immunodeficiency virus
[2] = test system: Human immunodeficiency virus; assay: Antiviral activity against G-pseudotyped HIV expressed in 293T cells with pGI3Luci; assay type: functional, organism-based; conditions: Human immunodeficiency virus 1, HEK-293T
[3] = Therapeutic index, CC50 for human 293T cells to EC50 for G-pseudotyped HIV; assay type: cell-based; conditions: read-out: Ratio CC50/EC50

Compound | IC50 [1] [nM] | EC50 [2] [nM] | selectivity ratio [3]
CCOC(=O)C(=O)Nc1nc(-c2nnc(Cc3ccc(F)cc3)o2)c(O)c2ncccc12 | 33 | 1300 | 10
CN1CCN(c2nc(-c3nnc(Cc4ccc(F)cc4)o3)c(O)c3ncccc23)C1=O | 15 | 30 | > 466
O=C1NCCN1c1nc(-c2nnc(Cc3ccc(F)cc3)o2)c(O)c2ncccc12 | 12 | 45 | 311
Oc1c(-c2nnc(Cc3ccc(F)cc3)o2)nc(-c2ccc[nH]2)c2cccnc12 | 12 | 160 | 31
N#Cc1ccc(-c2nc(-c3nnc(Cc4ccc(F)cc4)o3)c(O)c3ncccc23)cc1 | 15 | 26 | 72
O=C(c1nc(-c2nnc(Cc3ccc(F)cc3)o2)c(O)c2ncccc12)N1CCC(O)CC1 | 27 | 220 | > 65
O=C1CNCCN1c1nc(-c2nnc(Cc3ccc(F)cc3)o2)c(O)c2ncccc12 | 38 | 240 | 58
CNc1nc(-c2nnc(Cc3ccc(F)cc3)o2)c(O)c2ncccc12 | 74 | 400 | 30
Oc1c(-c2nnc(Cc3ccc(F)cc3)o2)nc(-c2ccoc2)c2cccnc12 | 23 | 100 | 116
Cc1ccccc1S(=O)(=O)Nc1nc(-c2nnc(Cc3ccc(F)cc3)o2)c(O)c2ncccc12 | 42 | 190 | 74
O=C1CCCCN1c1nc(-c2nnc(Cc3ccc(F)cc3)o2)c(O)c2ncccc12 | 88 | 87 | > 160
CS(=O)(=O)c1ccccc1-c1nc(-c2nnc(Cc3ccc(F)cc3)o2)c(O)c2ncccc12 | 11 | 23 | 243
CS(=O)(=O)Nc1nc(-c2nnc(Cc3ccc(F)cc3)o2)c(O)c2ncccc12 | 19 | 110 | 131
CC(=O)Nc1nc(-c2nnc(Cc3ccc(F)cc3)o2)c(O)c2ncccc12 | 72 | 110 | 127
O=C(c1nc(-c2nnc(Cc3ccc(F)cc3)o2)c(O)c2ncccc12)N1CCOCC1 | 130 | 97 | 134
CN1CCN(C(=O)c2nc(-c3nnc(Cc4ccc(F)cc4)o3)c(O)c3ncccc23)CC1 | 44 | 97 | > 144
CN(C)C(=O)CN1CCN(c2nc(-c3nnc(Cc4ccc(F)cc4)o3)c(O)c3ncccc23)CC1 | 12 | 43 | 205
Oc1c(-c2nnc(Cc3ccc(F)cc3)o2)nc(-c2ccccc2)c2cccnc12 | 29 | 36 | 49
Oc1c(-c2nnc(Cc3ccc(F)cc3)o2)nc(-c2ccccn2)c2cccnc12 | 30 | 56 | 40
O=C1CCCCCN1c1nc(-c2nnc(Cc3ccc(F)cc3)o2)c(O)c2ncccc12 | 25 | 34 | > 411
Nc1cccc(-c2nc(-c3nnc(Cc4ccc(F)cc4)o3)c(O)c3ncccc23)c1 | 15 | 15 | 546

Compound | IC50 [1] [nM] | EC50 [2] [nM] | selectivity ratio [3]
O=C1OCCN1c1nc(-c2nnc(Cc3ccc(F)cc3)o2)c(O)c2ncccc12 | 13 | 21 | > 666
CNC(=O)c1nc(-c2nnc(Cc3ccc(F)cc3)o2)c(O)c2ncccc12 | 120 | 150 | 43
CC(C)NS(=O)(=O)c1ccccc1-c1nc(-c2nnc(Cc3ccc(F)cc3)o2)c(O)c2ncccc12 | 12 | 8 | 295
CS(=O)(=O)N1CCN(c2nc(-c3nnc(Cc4ccc(F)cc4)o3)c(O)c3ncccc23)CC1 | 19 | 38 | 162
Oc1c(-c2nnc(Cc3ccc(F)cc3)o2)nc(-c2cnccn2)c2cccnc12 | 20 | 170 | 24
CN(C)C(=O)c1ccc(-c2nc(-c3nnc(Cc4ccc(F)cc4)o3)c(O)c3ncccc23)cc1 | 18 | 12 | 668
Cc1ccn(-c2nc(-c3nnc(Cc4ccc(F)cc4)o3)c(O)c3ncccc23)n1 | 21 | 380 | 23
NC(=O)c1nc(-c2nnc(Cc3ccc(F)cc3)o2)c(O)c2ncccc12 | 100 | 160 | 75
O=C(O)c1nc(-c2nnc(Cc3ccc(F)cc3)o2)c(O)c2ncccc12 | 860 | 4400 | > 3
CN(C)S(=O)(=O)c1ccc(-c2nc(-c3nnc(Cc4ccc(F)cc4)o3)c(O)c3ncccc23)cc1 | 18 | 9 | 218
CC(C)NC(=O)c1nc(-c2nnc(Cc3ccc(F)cc3)o2)c(O)c2ncccc12 | 190 | 98 | 22
O=C(NCCO)c1nc(-c2nnc(Cc3ccc(F)cc3)o2)c(O)c2ncccc12 | 130 | 1490 | > 9
O=C(NCCCO)c1nc(-c2nnc(Cc3ccc(F)cc3)o2)c(O)c2ncccc12 | 71 | 470 | > 30
CN(C)C(=O)C(=O)N(C)c1nc(-c2nnc(Cc3ccc(F)cc3)o2)c(O)c2ncccc12 | 85 | 310 | > 40
CC(=O)Nc1cccc(-c2nc(-c3nnc(Cc4ccc(F)cc4)o3)c(O)c3ncccc23)c1 | 80 | 10 | 1400
O=C1N(CCO)CCN1c1nc(-c2nnc(Cc3ccc(F)cc3)o2)c(O)c2ncccc12 | 13 | 94 | 148
CC(=O)N(C)c1nc(-c2nnc(Cc3ccc(F)cc3)o2)c(O)c2ncccc12 | 28 | 180 | 428
CN(C)C(=O)N1CCN(c2nc(-c3nnc(Cc4ccc(F)cc4)o3)c(O)c3ncccc23)C(=O)C1 | 23 | 87 | 120
Oc1c(-c2nnc(Cc3ccc(F)cc3)o2)nc(-c2cccnc2)c2cccnc12 | 11 | 36 | 194
CN(C)S(=O)(=O)Nc1nc(-c2nnc(Cc3ccc(F)cc3)o2)c(O)c2ncccc12 | 15 | 84 | 127
O=C1CCCN1c1nc(-c2nnc(Cc3ccc(F)cc3)o2)c(O)c2ncccc12 | 19 | 89 | > 156
